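Five compound concentrations were applied to cells in 96-well plates for 48 hours; endpoints were derived by simple linear interpolation of the resulting dose-response curve. GI50 = concentration required for 50% inhibition of growth. TGI: concentration producing complete growth inhibition.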
Columns and labels:
Assay in all cases: NCI tumour cell line growth inhibition, 48 h
HOP-62 NSCLC = test system: HOP-62 NSCLC
RPMI-8226 leukemia = test system: RPMI-8226 leukemia
HCC-2998 colon = test system: HCC-2998 colon
UACC-62 melanoma = test system: UACC-62 melanoma
NCI-H23 lung = test system: NCI-H23 lung
MALME-3M melanoma = test system: MALME-3M melanoma
SK-MEL-28 melanoma = test system: SK-MEL-28 melanoma
SNB-19 CNS = test system: SNB-19 CNS
UO-31 renal = test system: UO-31 renal
SNB-75 CNS = test system: SNB-75 CNS

Compound	GI50 (HOP-62 NSCLC) [µM]	TGI (HOP-62 NSCLC) [µM]	GI50 (RPMI-8226 leukemia) [µM]	TGI (RPMI-8226 leukemia) [µM]	GI50 (HCC-2998 colon) [µM]	TGI (HCC-2998 colon) [µM]	GI50 (UACC-62 melanoma) [µM]	TGI (UACC-62 melanoma) [µM]	GI50 (NCI-H23 lung) [µM]	TGI (NCI-H23 lung) [µM]	GI50 (MALME-3M melanoma) [µM]	TGI (MALME-3M melanoma) [µM]	GI50 (SK-MEL-28 melanoma) [µM]	TGI (SK-MEL-28 melanoma) [µM]	GI50 (SNB-19 CNS) [µM]	TGI (SNB-19 CNS) [µM]	GI50 (UO-31 renal) [µM]	TGI (UO-31 renal) [µM]	GI50 (SNB-75 CNS) [µM]	TGI (SNB-75 CNS) [µM]
Cc1cc(O)cc(C)c1/C=C/c1cncc(C(=O)N(C)C)c1	> 25	> 25	> 25	> 25	> 25	> 25	> 25	> 25	> 25	> 25	> 25	> 25	> 25	> 25	> 25	> 25	> 25	> 25	> 13.7	> 25
CC(C)(C)C([O-])=C1C(=O)c2ccccc2C1=O.CC(C)(C)C([O-])=C1C(=O)c2ccccc2C1=O.CC[O-].CC[O-].[Ti+4]	37.7	> 100			40.3	> 100	11.9	28.8	31.8	> 100	17.3	38.5	> 100	> 100	40.8	> 100	19.1	44.5	42.3	> 100
Cn1cc(NC(=O)c2cc(NC(=O)CCCCCC(=O)Nc3cc(C(=O)Nc4cc(C(=O)NCCC(=N)N)n(C)c4)n(C)c3)cn2C)cc1C(=O)NCCC(=N)N						> 100		> 100		> 100		> 100		> 100		> 100		> 100		> 100
O=[N+]([O-])/C=C\c1ccc2c(c1)OCO2	13.3	27	1.77	5.07			15.3	31.8	2.52	7.38	14.6	32.9	4.7	16.4	13.1	30.8	1.59	3.2	10.3	22.2
N#CC1C(N)=NNC1c1ccc(-c2ccc(-c3nc4ccccc4o3)cc2)o1 (stereo not drawn)	> 100	> 100	28.6	> 100			23.9	91.1					26	> 100	> 100	> 100	30.1	> 100	> 100	> 100
COc1ccc(/C=[N+](\[O-])[C@H](COCc2ccccc2)c2ccccc2)cc1		> 100		> 100		> 100				> 100		> 100		> 100		> 100		> 100		> 100
Cc1ccc(S(=O)(=O)NCCN2c3nc4ccccc4cc3Sc3cc4ccccc4nc32)cc1	16.5	98.9			> 100	> 100	11.4	51.4	13	> 100	23.2	> 100	> 100	> 100	10.5	67.7	> 100	> 100	1.54	7.84
COC(=O)/C(=N/NC(C)(C)C)C(C(=O)C=C(C)C)C(=O)C(=O)Nc1ccc(Cl)cc1C (stereo not drawn)		> 100		> 100		> 100		> 100		> 100		> 100		> 100		> 100		> 100		
CCCCCCCCCCCC(=O)C1=C(O)C(O)CCC1=O (stereo not drawn)		40.4				52.9		25.5		20		32		38.6		49.4		64.9		67.7
NC(N)=N/N=C/c1c(-c2cc(Cl)sc2Cl)nc2n1CCS2	8.87	15.8	9.34	19.4	5.11	12.6	8.62	16	8.77	16.7							17.3	> 50		
c1ccc2c(NCCCCCCCCNc3c4ccccc4nc4ccccc34)c3ccccc3nc2c1		2.24				3.61		2.19		1.73		2.63				3.43		2.76		2.62
Nc1ncnc2c1ncn2C1OC(C(=O)O)C(O)C1O (stereo not drawn)		> 100		> 100				> 100		> 100		> 100		> 100		> 100		> 100		> 100
CC1=CC[C@@H]2C(C)(C)[C@@H](O)CC[C@@]2(C)[C@@H]1COc1ccc2ccc(=O)oc2c1	6.84	26.1			12.7	27.4	3.52	14.5	10.8	33	8.04	22.4	11.8	26.7	14.3	42.9	2.99	13.1		
O=C(N/N=C/c1ccc(F)cc1)c1[nH]c2ccc(I)cc2c1-c1ccccc1	0.577	13.6	0.191	0.639	0.888	12.5	0.324	> 100	0.551	> 25.1			0.494	55.4	2.31	> 82.1	1.98	52.6	0.327	39.3
c1cncc(C2c3[nH]c4ccccc4c3CCN2CCN2CCCCC2)c1 (stereo not drawn)		> 100		> 100		> 100		> 100		> 100				> 100		> 100		> 100		> 100
O=c1c(OC/C(=N/O)c2ccccc2)c(-c2ccccc2)oc2ccccc12	20.3	> 50	7.07	15.6	9.64	17.5	9.2	25.2	18.1	> 50			16.6	28.9	15.9	> 50	19.2	> 50	16.8	> 50
C=C1C(=O)O[C@H]2[C@H]1CC/C(COC(=O)c1ccc(C(=O)O)s1)=C\CC[C@@]1(C)O[C@@H]21	6.96	20.2	1.97	5.98	3.47	11.5	1.65	3.23	3.34	11.8	2.44	4.25	2.1	4.83	3.17	11.6	1.4	3.04		
c1cc2c(cnc3cscc32)s1		> 100		> 100		> 100				> 100		> 100		> 100		> 100		> 100		> 100

Compound	GI50 (HOP-62 NSCLC) [µM]	TGI (HOP-62 NSCLC) [µM]	GI50 (RPMI-8226 leukemia) [µM]	TGI (RPMI-8226 leukemia) [µM]	GI50 (HCC-2998 colon) [µM]	TGI (HCC-2998 colon) [µM]	GI50 (UACC-62 melanoma) [µM]	TGI (UACC-62 melanoma) [µM]	GI50 (NCI-H23 lung) [µM]	TGI (NCI-H23 lung) [µM]	GI50 (MALME-3M melanoma) [µM]	TGI (MALME-3M melanoma) [µM]	GI50 (SK-MEL-28 melanoma) [µM]	TGI (SK-MEL-28 melanoma) [µM]	GI50 (SNB-19 CNS) [µM]	TGI (SNB-19 CNS) [µM]	GI50 (UO-31 renal) [µM]	TGI (UO-31 renal) [µM]	GI50 (SNB-75 CNS) [µM]	TGI (SNB-75 CNS) [µM]
CN(C)CN1C(=O)S/C(=C2\C(=O)N(CN(C)C)c3ccccc32)C1=O		> 100		54.8		> 100		> 100		49.2				> 100		> 100		91.8		74.5
Cn1c(=O)c2c(nc3n2CCC(=O)N3)n(C)c1=O		> 100						> 100		> 100		> 100		> 100		> 100		> 100		
COC(=O)C12C3C4C1C1C2C3C41I (stereo not drawn)		> 100		> 100		> 100		> 100		> 100		> 100		> 100		> 100		> 100		
ClCCn1cnc2c(SCc3ccccc3)ncnc21	1.44	> 100	0.73	35.5			6.65	> 100	29.2	> 100	25.7	> 100	10.9	> 100	2.61	> 100	2.13	39.4	0.777	> 100
C=C1C(O)C2C(=C(CC(C)C)C13CC3)C(=O)C(C)(C)C2OC (stereo not drawn)	> 100	> 100	65.3	> 100			> 100	> 100	> 100	> 100	> 100	> 100	> 100	> 100	> 100	> 100	> 100	> 100		
O=C(O)c1nnsc1COCc1ccccc1		> 100		> 100				> 100		> 100		> 100		> 100		> 100		> 100		> 100
O=S(=O)(O)c1ccc2cc(N=Nc3cc(S(=O)(=O)O)c4cccnc4c3O)ccc2c1		> 100		> 100				> 100		> 100		> 100		> 100		> 100		> 100		> 100
COc1cccc2c(=O)c3c(sc12)c(NCCCN)nc1ccccc13			2.11	4.92	1.72	3.26	1.64	3.05	1.56	2.99	1.58	2.99	1.87	3.36	1.61	3.04	0.832	2.18	1.64	3.2
OC1CCC(C2C3CCCCC3C3CCCCC3C2C2CCC(O)CC2)CC1 (stereo not drawn)		47.4		59.1				31.2		> 100		41.7		9.59		32.2		36.5		21.6
CCCCCCCCCCCCC(SCCNC(=O)CCNC(=O)C(O)C(C)(C)COP(=O)(O)OP(=O)(O)OCC1OC(n2cnc3c(N)ncnc32)C(O)C1OP(=O)(O)O)C(=O)NCC(N)=O (stereo not drawn)		> 100				> 100		> 100		> 100		> 100		> 100		> 100		> 100		9.04
C=CCN(N=O)C(=O)N(CCC)CCCC(NC(C)=O)C(=O)NCc1ccccc1 (stereo not drawn)		> 100		> 100				> 100		> 100		> 100		> 100		> 100		> 100		> 100
O=C1/C(=C\c2cccs2)Oc2ccccc21		> 100		> 100		> 100		> 100		> 100				> 100		> 100		83.3		> 100
Cc1ccc(N2C(=O)C(Cl)=C(Nc3cccc(O)c3)C2=O)cc1Cl	17.7	36.3	3.95	28.6	14.5	29.6	17	32.6	15.2	30.5	17.2	31.4	22.4	49.8	23.3	65.5	26.1	75.8		
CCOC(=O)c1c2ccc(/C=C/C(=O)OC)ccc-2c(C(=O)OCC)c1N						> 100		> 100		> 100		> 100		8.42		> 100		> 100		> 100
O=C1c2cccc3cc([N+](=O)[O-])cc(c23)C(=O)N1CCCN1CCN(CCCN2C(=O)c3cccc4cc([N+](=O)[O-])cc(c34)C2=O)CC1		33.8		> 100		54.3		1.65		7.64		25.3				> 100		1.01		9.54
N#C/C(=C(\O)C(=O)O)c1ccc(-c2cccc3ccccc23)cc1		> 100		> 100				> 100		> 100		> 100		> 100		> 100		> 100		> 100
CC1(C)OC2C(=O)OC(COCc3ccccc3)C2O1 (stereo not drawn)		> 100		> 100		> 100		> 100		> 100		> 100		> 100				> 100		> 100
OCCCNCc1ccccn1		> 100		> 100				> 100		> 100		> 100		> 100		> 100		> 100		> 100
